According to patent publication US20240336634A1, “AGONISTS OF TYRO3 AS PROTECTION AGAINST PODOCYTE INJURY IN KIDNEY GLOMERULAR DISEASE” (The Government of the United States of America as …, priority 2021, published 2024):
Values belong to the compound of their own block, whether it stands above or below them.

Key:
[1] = tested on: NF-κB target gene expression (IL-6); assay: NF-κB target gene expression in TNF-α treated podocytes, q-PCR; format: cell-based; details: TNF-α (10 ng), 2 hours, IL-6 q-PCR
Description: (§1) FIG. 2A-C show representative data illustrating screening of TYRO3 agonists by activation of TYRO3, AKT, and NK-κB target gene expression. Referring to FIG. 2A and FIG. 2B, podocytes were treated with control vehicle (C) or different TYRO3 agonists (compounds 1-10) for 30 minutes. Western blot analysis was performed for phospho- or total Tyro3 (FIG. 2A) and AKT (FIG. 2B). Referring to FIG. 2C, podocytes were treated with vehicle control (C), TNF-α (10 ng) alone (T), or together with different TYRO3 agonists (compounds 1-10) for 2 hours, and then q-PCR analysis was performed for NF-kB target gene expression (IL-6). N=3, *p<0.01 as compared to TNF-α alone.
(§2) FIG. 3A and FIG. 3B show representative data illustrating the time course and dose effects of C-10 on the phosphorylation of TYRO3, AKT, and NK-κB target gene expression. Referring to FIG. 3A, podocytes were treated with C-10 for 30 minutes at different doses (left) or at 100 nM for different time period (right). […]
(§3) Next, their biological activity was screened by testing their effects on TYRO3, and AKT phosphorylation in podocytes. […] In addition, TYRO3 and Axl were overexpressed in podocytes (FIG. 4B), and the effects of C-10 in these cells was determined.

AKT = AKT phosphorylation in podocytes, western blot; format: cell-based; details: 30 minutes, screening (FIG. 2)
Description: as §1, §2, §3

TYRO3 = biological target: T1, TYRO3 (Homo sapiens, UniProt Q06418); assay: TYRO3 phosphorylation in podocytes, western blot; format: cell-based; details: for TYRO3 phosphorylation: podocytes, 30 minutes
T1 construct: testing their effects on TYRO3, and AKT phosphorylation in podocytes; endogenous in cells
T1 sequence (Q06418 41-890): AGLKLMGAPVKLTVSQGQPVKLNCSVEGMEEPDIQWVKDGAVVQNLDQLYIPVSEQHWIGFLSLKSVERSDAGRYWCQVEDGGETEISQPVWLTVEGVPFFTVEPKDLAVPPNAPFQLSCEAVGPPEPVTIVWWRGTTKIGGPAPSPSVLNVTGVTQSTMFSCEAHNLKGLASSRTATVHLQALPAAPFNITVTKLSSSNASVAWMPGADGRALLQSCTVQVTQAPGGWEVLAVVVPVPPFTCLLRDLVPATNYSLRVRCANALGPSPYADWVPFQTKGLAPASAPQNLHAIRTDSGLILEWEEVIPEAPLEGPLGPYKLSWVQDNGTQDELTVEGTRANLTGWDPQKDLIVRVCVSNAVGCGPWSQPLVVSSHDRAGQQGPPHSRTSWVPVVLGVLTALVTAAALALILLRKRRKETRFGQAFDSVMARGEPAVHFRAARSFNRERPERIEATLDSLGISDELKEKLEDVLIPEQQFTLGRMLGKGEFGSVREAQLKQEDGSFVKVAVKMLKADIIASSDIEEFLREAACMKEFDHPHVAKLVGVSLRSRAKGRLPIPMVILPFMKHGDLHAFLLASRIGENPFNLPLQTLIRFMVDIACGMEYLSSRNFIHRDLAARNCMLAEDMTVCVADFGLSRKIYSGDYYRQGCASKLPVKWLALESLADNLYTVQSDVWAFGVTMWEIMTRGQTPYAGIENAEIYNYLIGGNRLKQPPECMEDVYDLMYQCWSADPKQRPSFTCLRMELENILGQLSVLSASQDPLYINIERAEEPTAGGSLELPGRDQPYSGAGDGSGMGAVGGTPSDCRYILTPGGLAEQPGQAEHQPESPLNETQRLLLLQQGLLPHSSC
Description: as §1
FIG. 3A and FIG. 3B show representative data illustrating the time course and dose effects of C-10 on the phosphorylation of TYRO3, AKT, and NK-κB target gene expression. Referring to FIG. 3A, podocytes were treated with C-10 for 30 minutes at different doses (left) or at 100 nM for different time period (right). Referring to FIG. 3B, podocytes were treated with vehicle control TNF-α (10 ng) alone or together with different concentrations of C-10 for 2 hours, and then q-PCR analysis was performed for NF-kB target gene expression (IL-6 and CCL2). N=3, *p<0.01 and **p<0.001 as compared to TNF-α alone.
(§4) Referring to FIG. 4B, HEK293T cells were used to confirm the overexpression of Tyro3 and Axl (C: control; OV:overexpression). Referring to FIG. 4C, cells from above transfection were stimulated with C-10 at 100 nM for 30 minutes. Western blot analysis was performed for phospho- and total AKT and GAPDH was used as a control of protein loading. The representative blots of three independent experiments are shown.
(§5) Next, their biological activity was screened by testing their effects on TYRO3, and AKT phosphorylation in podocytes. […] To test the specificity, podocytes were treated with different doses of C-10 for 30 minutes, and then western blot analysis was performed with anti-phospho-Tyro3 antibody, which also recognizes phosphorylation of Mer and Axl. Since three TAM receptors have different molecular weights, they can be distinguished in the SDS gel. […] In addition, TYRO3 and Axl were overexpressed in […] (FIG. 4B), and the effects of C-10 in these cells was determined.

diabetic mice (db/db) = assay: Albuminuria and glomerular injury in diabetic db/db mice; format: in vivo; details: 2.5 mg/kg from age 10 weeks, 8 weeks
Description: FIG. 6A-C show representative data illustrating that treatment with C-10 improves albuminuria and glomerular injury in diabetic mice. Db/db mice were treated with C-10 at 2.5 mg/kg at age of 10 week, the mice were sacrificed after 8 weeks of treatment.
The effect of C-10 on albuminuria and glomerular injury in diabetic mice was also evaluated. 10 week old db/db mice were treated with C-10 at 2.5 mg/kg. Mice were sacrificed at week 8. As shown in FIGS. 6A-C, administration of C-10 improved both albuminuria and glomerular injury relative to control.

Mer = biological target: T2, Mer (Homo sapiens, UniProt Q12866); assay: Mer phosphorylation in podocytes, western blot with anti-phospho-TAM receptor antibody; format: cell-based; details: different doses, 30 minutes (FIG. 4A)
T2 construct: endogenous in cells; host or cells: human podocytes
T2 sequence (Q12866 21-999): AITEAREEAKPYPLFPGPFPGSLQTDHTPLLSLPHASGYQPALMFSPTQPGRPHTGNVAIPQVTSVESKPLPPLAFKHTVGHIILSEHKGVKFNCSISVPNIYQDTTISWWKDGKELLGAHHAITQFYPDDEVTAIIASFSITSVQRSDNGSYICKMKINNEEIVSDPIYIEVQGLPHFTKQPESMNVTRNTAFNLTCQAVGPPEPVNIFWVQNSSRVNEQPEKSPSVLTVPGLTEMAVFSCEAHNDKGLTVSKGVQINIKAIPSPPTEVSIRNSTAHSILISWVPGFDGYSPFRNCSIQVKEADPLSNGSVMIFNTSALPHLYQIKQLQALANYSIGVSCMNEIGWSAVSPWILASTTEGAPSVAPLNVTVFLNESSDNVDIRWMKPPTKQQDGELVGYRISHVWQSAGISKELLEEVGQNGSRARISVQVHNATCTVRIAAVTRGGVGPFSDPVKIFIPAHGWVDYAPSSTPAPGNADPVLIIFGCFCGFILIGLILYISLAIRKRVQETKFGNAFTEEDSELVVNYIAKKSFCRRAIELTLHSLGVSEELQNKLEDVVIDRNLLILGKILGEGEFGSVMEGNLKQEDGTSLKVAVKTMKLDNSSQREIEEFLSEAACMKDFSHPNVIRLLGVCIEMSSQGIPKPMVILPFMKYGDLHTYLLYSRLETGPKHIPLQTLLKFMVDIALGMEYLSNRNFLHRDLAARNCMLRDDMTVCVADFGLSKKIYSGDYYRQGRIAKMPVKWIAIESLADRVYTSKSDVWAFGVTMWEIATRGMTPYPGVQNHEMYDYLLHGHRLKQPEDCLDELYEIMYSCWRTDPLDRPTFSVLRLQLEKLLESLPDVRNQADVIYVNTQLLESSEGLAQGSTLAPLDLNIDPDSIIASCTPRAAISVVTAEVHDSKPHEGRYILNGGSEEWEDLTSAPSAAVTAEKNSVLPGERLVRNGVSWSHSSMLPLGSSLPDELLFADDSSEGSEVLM
Description: as §4, §5

[2] = tested on: TYRO3 overexpressing cells; assay: AKT phosphorylation in TYRO3 overexpressing cells; format: cell-based; details: 100 nM, 30 minutes (FIG. 4C)
Description: as §4, §5

[3] = tested on: mice with Adriamycin-induced nephropathy (ADRN); assay: Adriamycin-induced nephropathy (ADRN) in mice; format: in vivo
Description: FIG. 5A-C show representative data illustrating that C-10 treatment attenuates adriamycin-induced nephropathy (ADRN) in mice. 10-week old male Balb/c mice were injected with adriamycin (8 mg/kg) and treated with C-10 at 20 mg/kg from day 3 post-injection. All mice were sacrificed at day 28 post-injection.
The effect of C-10 was determined in vivo in mice with Adriamycin-induced nephropathy (ADRN). ADRN was induced in the Balb/c mice by injection of adriamycin at a dose of 8 mg/kg at the age of 10 weeks. The mice were fed with either C-10 at a dose of 20 mg/kg body weight or vehicle by daily gavage started on day 3 after they received an injection of Adriamycin, and ending in 4 weeks when the mice were sacrificed.

Axl = biological target: T3, Axl (Homo sapiens, UniProt P30530); assay: Axl phosphorylation in podocytes, western blot with anti-phospho-TAM receptor antibody; format: cell-based; details: different doses, 30 minutes (FIG. 4A)
T3 construct: endogenous in cells; host or cells: human podocytes
T3 sequence (P30530 26-894): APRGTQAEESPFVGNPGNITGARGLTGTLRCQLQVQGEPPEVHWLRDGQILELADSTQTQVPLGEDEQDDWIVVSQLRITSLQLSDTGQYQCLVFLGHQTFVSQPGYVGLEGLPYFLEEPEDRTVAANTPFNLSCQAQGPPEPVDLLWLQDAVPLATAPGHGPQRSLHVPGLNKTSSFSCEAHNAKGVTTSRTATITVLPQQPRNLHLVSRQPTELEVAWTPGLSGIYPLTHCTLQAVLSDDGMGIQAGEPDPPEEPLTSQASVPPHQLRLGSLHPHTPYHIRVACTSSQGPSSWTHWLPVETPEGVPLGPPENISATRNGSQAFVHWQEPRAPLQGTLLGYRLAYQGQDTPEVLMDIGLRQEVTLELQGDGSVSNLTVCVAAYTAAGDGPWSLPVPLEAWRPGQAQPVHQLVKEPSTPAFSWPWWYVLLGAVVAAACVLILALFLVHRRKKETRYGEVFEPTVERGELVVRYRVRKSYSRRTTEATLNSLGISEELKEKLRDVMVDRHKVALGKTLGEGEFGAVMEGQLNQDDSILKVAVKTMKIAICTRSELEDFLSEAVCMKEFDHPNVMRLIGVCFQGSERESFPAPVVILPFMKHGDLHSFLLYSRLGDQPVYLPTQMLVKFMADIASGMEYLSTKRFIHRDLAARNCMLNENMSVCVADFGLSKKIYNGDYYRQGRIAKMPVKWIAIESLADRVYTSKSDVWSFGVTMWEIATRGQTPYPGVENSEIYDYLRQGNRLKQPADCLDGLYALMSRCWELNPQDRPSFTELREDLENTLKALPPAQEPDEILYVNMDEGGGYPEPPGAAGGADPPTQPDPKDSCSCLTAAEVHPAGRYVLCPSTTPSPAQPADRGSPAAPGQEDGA
Description: as §4, §5

[4] = ADRN Balb/c mice, 20 mg/kg daily gavage from day 3, 4 weeks

TYRO3 phosphorylation (TYRO3; screening (FIG. 2A)): induced significantly
SMILES: COc1cc(-c2nc(O)c(C)s2)ccc1Br [C-8, 2-(4-Bromo-3-Methoxyphenyl)-5-Methylthiazol-4-ol]
NF-κB target gene expression [1]: suppressed
AKT phosphorylation (AKT): induced significantly

SMILES: Cc1sc(-c2ccc(B(O)O)s2)nc1O [C-10, (5-(4-Hydroxy-5-Methylthiazol-2-yl)Thiophen-2-yl)Boronic Acid]
albuminuria (diabetic mice (db/db)): improved
glomerular injury (diabetic mice (db/db)): improved
phosphorylation of Mer (Mer): slightly reduced
NF-κB target gene expression [1]: suppressed
AKT phosphorylation in TYRO3 overexpressing cells [2]: induced
toxicity during the treatment period ([3]; ADRN Balb/c mice, 20 mg/kg daily gavage): No obvious toxicity
albuminuria [3, 4]: significantly reduced
glomerular injury [3, 4]: significantly reduced
adriamycin-induced nephropathy (ADRN) ([3]; Balb/c mice, 20 mg/kg from day 3, sacrificed day 28): attenuates
AKT phosphorylation (AKT): induced significantly
specificity as agonist for TYRO3 among TAM receptors (TYRO3; from phosphorylation of Tyro3, Axl and Mer): quite specific agonist for TYRO3
TYRO3 phosphorylation (TYRO3; screening (FIG. 2A)): induced significantly
TYRO3 phosphorylation (TYRO3; different doses, anti-phospho-Tyro3 antibody (FIG. 4A)): induced significantly
effect as TYRO3 agonist compared between hits (TYRO3; screening in podocytes): appears better than C-8
phosphorylation of Axl (Axl): did not affect
